# Columns and labels:
# [1] = tested on: anti-BCMA CAR T cells; assay: Proliferation and expansion of anti-BCMA CAR T cells stimulated with BCMA-conjugated beads; format: cell-based, human; settings: 5 μM lenalidomide
# Description: Cryofrozen anti-BCMA CAR T cells, produced substantially as described in Example 2 and formulated at a 1:1 ratio of CD4+ and CD8+ T cells, were thawed.
# Total cell count, monitored at day 4 (FIG. 21E) and day 7 (FIG. 21F), was increased following stimulation of anti-BCMA CAR+ T cells with beads from a 50 μg/mL BCMA-conjugated bead composition, but not 5 μg/mL BCMA-conjugated bead composition, compared to the cells present at the time of initiation of the incubation (dashed line).
# To further assess proliferation, the cells containing anti-BCMA CAR-expressing T cells were labeled with the proliferation marker dye CELLTRACE VIOLET (CTV; ThermoFisher Scientific, Waltham Mass.) in accordance with the manufacturer's protocol prior to incubation with the BCMA-conjugated beads. Proliferation was assessed by dye dilution using flow cytometry on cells that were stimulated with beads from the 50 μg/mL BCMA-conjugated bead composition.
# Four days and seven days after addition of BCMA-conjugated beads, the incubated cells were stained with CD4 or CD8 and with an anti-EGFR antibody to determine the percentage of cells positive for EGFRt as a surrogate for CAR+ T cells. At the time of plating, 26% of the CD4+ cells expressed anti-BCMA CAR and 39% of the CD8+ cells expressed anti-BCMA CAR as determined by staining with BCMA-Fc. The percent of EGFRt+CD4+ T cells increased from about 26% at the initiation of the incubation to greater than 40% by day 4 (FIG. 21H) and greater than 60% by day 7 (FIG. 21I) when the cells were incubated in the presence of beads from a 50 μg/mL BCMA-conjugated bead composition. […] The extent of cell expansion was greatest when cells were incubated in the presence of beads from a 50 μg/mL BCMA-conjugated bead composition compared to beads from the 5 μg/mL BCMA-conjugated bead composition.
# [2] = tested on: anti-BCMA CAR T cells with RPMI-8226; assay: Cytokine production of anti-BCMA CAR T cells co-cultured with RPMI-8226 with or without lenalidomide; format: cell-based, human
# Source text: Culture of T cells not expressing the anti-BCMA CAR (mock) was used as a control.
# [3] = tested on: anti-CD19 CAR+ T cells; assay: IL-10 in supernatants of anti-CD19 CAR+ T cells incubated with K562-CD19 cells; settings: E:T 3:1 or 9:1, 24 hours
# [4] = tested on: anti-BCMA CAR T cells with OPM-2; assay: Cytokine production of anti-BCMA CAR T cells co-cultured with OPM-2 with or without lenalidomide; format: cell-based, human
# [5] = tested on: anti-CD19 CAR-expressing T cells; assay: Serial stimulation with K562.CD19: expansion (cell doublings); format: cell-based, human; settings: for cell doublings: 1000 nM lenalidomide
# Source text: Every 3-4 days (start of each new round), the cells were counted.
# [6] = tested on: anti-CD19 CAR T cells; assay: Proliferation of anti-CD19 CAR T cells under sub-optimal anti-CD3 stimulation (CTV dilution); format: cell-based, human; settings: 5 μM lenalidomide, sub-optimal anti-CD3, 72 hours
# Source text: The CAR contained an anti-CD19 scFv, an Ig-derived spacer, a human CD28-derived transmembrane domain, a human 4-1BB-derived intracellular signaling domain and a human CD3 zeta-derived signaling domain. The nucleic acid construct encoding the CAR also included a truncated EGFR (tEGFR) sequence for use as a transduction marker, separated from the CAR sequence by a self-cleaving T2A sequence.
# [7] = tested on: RPMI-8226 target cells; assay: Cytolytic activity against RPMI-8226 after seven days incubation with BCMA-conjugated beads; format: cell-based, human
# Description: Cytolytic activity of CAR+ T cells after incubation with BCMA-conjugated beads was assessed by incubation with the BCMA-expressing target cell line RPMI-8226, which is a BCMA+ multiple myeloma cell line. […] The number of viable cells was normalized to cells at day 0 prior to incubation with the RPMI-8226 target cells.
# [8] = tested on: OPM2-ffluc tumor; assay: OPM-2 human multiple myeloma orthotopic xenograft mouse model, Study 1; format: in vivo
# Description: Mice (NOD.Cg-Prkdc^scidIL-2rg^tm1Wjl/SzJ mice (NSG; Jackson Labs)) were injected intravenously (i.v.) with 2×10^6 OPM2 (multiple myeloma) cells transfected with firefly luciferase (OPM2-ffluc). Tumor engraftment was allowed to occur for 13 days prior to staging (14 days before CAR-T cell administration) and verified using bioluminescence imaging.
# Table E1 summarizes the dosing regimens.
# Tumor burden in animals among the various groups was monitored by bioluminescence imaging up to day 39 post-CAR+ T cell dosing. For bioluminescence imaging, mice received intraperitoneal (i.p.) injections of luciferin substrate (CaliperLife Sciences, Hopkinton, Mass.) resuspended in PBS (15 μg/g body weight). The total flux (photon/s) was determined at each time point.
# Table E2 lists median survival (ms) (as assessed at day 56 post-CAR+ T cell administration) and number of mice in group surviving until day 56-post-CAR+ T cell administration, for each animal group assessed in this study.
smiles,measurement,setting,value
"Nc1cccc2c1CN(C1CCC(=O)NC1=O)C2=O (centres unmarked) [lenalidomide, 3-(4-amino-1-oxo-1,3-dihydro-2H-isoindol-2-yl)piperidine-2,6-dione]",total cell count (proliferation),"[1]; 50 ug beads, day 7",small increase in proliferation
same,proliferation by CTV dilution,"[1]; 50 μg/mL beads, day 4 but not day 7",slight delay in proliferation
same,extent of CAR+ T cell expansion (% EGFRt+),[1]; day 4 and day 7,did not substantially impact the extent of CAR+ T cell expansion
same,"CAR-dependent cytokine production and/or accumulation (IL-2, IFNγ, TNF-α)","[2]; 10 μM lenalidomide, E:T 0.3:1, 48 hours",increase in CAR-dependent cytokine production and/or accumulation
same,"cytokine production by CAR-expressing T cells (IFN-γ, IL-2, TNF-α)",[2]; three healthy donors and one patient donor,significantly increased across all donors and cytokines
same,secretion and/or accumulation of IL-10,[3],dose-dependently increased secretion and/or accumulation of IL-10
same,"cytokine production and/or accumulation (IFNγ, IL-2, TNF-α)","[4]; 0.01-10 μM lenalidomide, E:T 1:1, 24 hours, four donors",enhance cytokine production and/or accumulation by antigen-stimulated anti-BCMA CAR+ T cells in a dose-dependent manner
same,"IFN-γ, IL-2 and TNF-α production","[4]; all CAR T donors, concentration-dependent","significantly increased IFN-γ, IL-2, and TNF-α production"
same,"cytokine production (IFNγ, IL-2)","[4]; healthy donor and multiple myeloma patient, E:T 1:1, 24 hours",increased by lenalidomide in a concentration-dependent manner
same,CAR+ T cell counts,[5]; 100 nM lenalidomide,increased CAR+ T cell counts for two out of three donors
same,cell doublings,"[5]; 2.5:1 E:T ratio, later rounds",lower cell doublings were only observed in two of the donors
same,cell doublings,"[5]; 10:1 E:T ratio, after 3-4 rounds, all donors",decreased cell doublings
same,proliferation of CAR+ T cells,[6],enhanced proliferation of the CAR+ T cells
same,target cell viability,"[7]; RPMI 8226 cells cultured with lenalidomide, no CAR T",did not directly influence target cell viability
same,killing activity,[7]; lenalidomide present during the cell killing assay,did not substantially affect killing activity
same,cytolytic activity of the CAR+ T cells,[7]; preincubation with 5 μM lenalidomide during seven day bead incubation,increased cytolytic activity of the CAR+ T cells
same,survival effects,"[8]; added to anti-BCMA CAR+ T cells, high and low doses, day −1 or delayed dosing",improved survival effects
same,# animals surviving day 56 post-CART,"[8]; lenalidomide 10 mg/kg i.p. daily from day −1 (A) or day 14 (B), cell dose hi 1.00E+06, low 5.00E+05",0/8
same,Median Survival (assessed at day 6),"[8]; lenalidomide 10 mg/kg i.p. daily from day −1 (A) or day 14 (B), cell dose hi 1.00E+06, low 5.00E+05, listed as lenalidomide (A)",28
same,Median Survival (assessed at day 6),"[8]; lenalidomide 10 mg/kg i.p. daily from day −1 (A) or day 14 (B), cell dose hi 1.00E+06, low 5.00E+05, listed as lenalidomide (B)",25
same,tumor growth or tumor burden,[8]; lenalidomide alone,not observed to reduce tumor growth or tumor burden
same,tumor growth and tumor burden,"[8]; lenalidomide from day 14 added to CAR-T cells, both doses",trend towards slower tumor growth and reduced tumor burden
same,tumor growth and tumor burden (bioluminescence),"[8]; lenalidomide from day −1 added to CAR+ T cells, both doses",slower tumor growth and reduced tumor burden

# — patent US20200078404A1, “COMBINATION OF A CELL THERAPY AND AN IMMUNOMODULATORY COMPOUND” (Juno Therapeutics, Inc., priority 2017, published 2020)
